The text below walks through data of ChEMBL document CHEMBL5728311, “Benzyl phenyl ether derivative, preparation method therefor, and pharmaceutical composition and uses thereof” (2021).

The IC50 is the concentration needed to halve the response being measured.

Programmed cell death protein 1/Programmed cell death 1 ligand 1, sequence (Q15116 whole entry): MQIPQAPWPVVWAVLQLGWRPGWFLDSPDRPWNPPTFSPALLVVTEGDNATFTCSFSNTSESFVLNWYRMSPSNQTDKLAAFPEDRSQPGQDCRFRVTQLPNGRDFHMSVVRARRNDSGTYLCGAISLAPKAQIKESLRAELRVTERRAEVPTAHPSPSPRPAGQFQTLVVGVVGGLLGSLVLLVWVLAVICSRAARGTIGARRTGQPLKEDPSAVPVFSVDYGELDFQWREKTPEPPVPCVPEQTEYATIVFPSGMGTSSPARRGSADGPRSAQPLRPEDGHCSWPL
Programmed cell death protein 1/Programmed cell death 1 ligand 1, sequence (Q9NZQ7 whole entry): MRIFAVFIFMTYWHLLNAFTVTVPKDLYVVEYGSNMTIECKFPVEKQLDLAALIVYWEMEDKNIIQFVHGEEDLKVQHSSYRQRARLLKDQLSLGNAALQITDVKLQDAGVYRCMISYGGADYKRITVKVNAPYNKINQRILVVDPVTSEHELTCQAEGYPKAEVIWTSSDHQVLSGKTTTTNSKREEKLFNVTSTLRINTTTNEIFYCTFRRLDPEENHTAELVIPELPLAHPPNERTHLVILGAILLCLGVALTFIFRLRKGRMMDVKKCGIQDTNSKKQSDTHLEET

The experiment has as its target Programmed cell death protein 1/Programmed cell death 1 ligand 1 (Homo sapiens, UniProt Q15116+Q9NZQ7). Description: In Vitro Activity Assay: 1) Principle: PD-1 protein is with HIS tag, and PD-1 ligand PD-L1 is with hFc tag. Eu labeled anti-hFc antibody and XL665 labeled anti-HIS antibody are combined with the above two label proteins respectively. After laser excitation, energy can be transferred from donor Eu to receptor XL665, allowing XL665 to glow. […] Reagents should be dispensed in the following order. For 384-well white ELISA plate, 2 μl of diluent or target compound diluted with diluent was added to each well, and then 4 μl of PD-1 protein and 4 μl of PD-L1 protein were added per well, incubated for 15 min at room temperature; and 10 μl of a mixture of anti-Tag1-Eu3+ and anti-Tag2-XL665 was added per well and incubated for 1 h to 4 h at room temperature and the fluorescence signals at 665 nm and 620 nm were measured with an Envison instrument. HTRF rate=(665 nm/620 nm)[…]. 8-10 concentrations were detected for each compound and IC50 was calculated by Graphpad software. In kind it is protein-complex assay.
Take `N#Cc1cccc(COc2cc(OCc3cccc(-c4ccccc4)c3Br)c(Cl)cc2CNCCO)c1`: the IC50 was 5.29 nM.

As for `CS(=O)(=O)NCCNCc1ccc(OCc2cccc(-c3ccccc3)c2Br)cc1OCc1cccc(C#N)c1`, the IC50 was 979 nM. Then `N#Cc1cccc(COc2cc(OCc3cccc(-c4ccccc4)c3Br)ccc2CN2CCOCC2)c1`, with 458 nM.
